Legend:
[1] = system: monoubiquitinated PCNA; test: AlphaLISA assay measuring monoubiquitinated PCNA in MDA-MB-436; assay type: cell-based; conditions: Homo sapiens, MDA-MB-436, monoubiquitinated PCNA, read-out: Alpha Lisa IC50
Source text: Table 1 also indicates IC50 values for exemplary compounds in an AlphaLISA assay measuring monoubiquitinated PCNA in a BRCA1 mutant cell line (MDA-MB-436; column 7).

[2] = system: MDA-MB-436; test: Viability assay, BRCA1 mutant cell line MDA-MB-436; assay type: cell-based; conditions: Homo sapiens, MDA-MB-436, viability, BRCA1 mutant MDA-MB-436; read-out: MDA-MB-436 rel IC50
Source text: (§1) Table 1 also indicates IC50 values in a viability assay for a non-isogenic pair of BRCA1 mutant (column 5-MDA-MB-436) and BRCA1 WT (column 6—HCC1954) cell lines. These values indicate the effect of treatment with compound on cell survival.

[3] = system: HCC1954; test: Viability assay, BRCA1 WT cell line HCC1954; assay type: cell-based; conditions: Homo sapiens, HCC1954, viability, read-out: HCC1954 rel IC50
Source text: as §1

[4] = target: USP1-UAF1 (Homo sapiens, UniProt O94782); test: Ubiquitin Rhodamine assay of USP1-UAF1 activity; assay type: biochemical
Chain of USP1-UAF1 (O94782 whole entry): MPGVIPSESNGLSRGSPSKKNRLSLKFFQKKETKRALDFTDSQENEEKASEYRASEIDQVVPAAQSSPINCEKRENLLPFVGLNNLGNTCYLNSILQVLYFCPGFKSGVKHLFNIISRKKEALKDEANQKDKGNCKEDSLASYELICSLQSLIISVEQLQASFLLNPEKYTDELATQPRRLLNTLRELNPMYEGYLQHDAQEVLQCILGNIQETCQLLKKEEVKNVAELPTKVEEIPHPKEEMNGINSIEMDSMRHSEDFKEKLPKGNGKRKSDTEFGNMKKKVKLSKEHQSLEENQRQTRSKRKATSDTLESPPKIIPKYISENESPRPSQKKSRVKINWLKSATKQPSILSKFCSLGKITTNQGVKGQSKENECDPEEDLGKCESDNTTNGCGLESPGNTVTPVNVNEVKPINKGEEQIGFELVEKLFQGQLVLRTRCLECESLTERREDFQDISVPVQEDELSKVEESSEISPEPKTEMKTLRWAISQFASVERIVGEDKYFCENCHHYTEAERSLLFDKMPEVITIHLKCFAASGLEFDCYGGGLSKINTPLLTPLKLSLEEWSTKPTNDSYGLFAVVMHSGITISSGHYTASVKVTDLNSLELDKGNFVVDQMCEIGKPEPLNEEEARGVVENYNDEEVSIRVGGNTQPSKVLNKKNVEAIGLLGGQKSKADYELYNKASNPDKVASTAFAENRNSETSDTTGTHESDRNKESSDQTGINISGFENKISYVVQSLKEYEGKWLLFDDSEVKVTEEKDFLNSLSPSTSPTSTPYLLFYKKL
Chain of USP1-UAF1 (Q8TAF3 whole entry partner): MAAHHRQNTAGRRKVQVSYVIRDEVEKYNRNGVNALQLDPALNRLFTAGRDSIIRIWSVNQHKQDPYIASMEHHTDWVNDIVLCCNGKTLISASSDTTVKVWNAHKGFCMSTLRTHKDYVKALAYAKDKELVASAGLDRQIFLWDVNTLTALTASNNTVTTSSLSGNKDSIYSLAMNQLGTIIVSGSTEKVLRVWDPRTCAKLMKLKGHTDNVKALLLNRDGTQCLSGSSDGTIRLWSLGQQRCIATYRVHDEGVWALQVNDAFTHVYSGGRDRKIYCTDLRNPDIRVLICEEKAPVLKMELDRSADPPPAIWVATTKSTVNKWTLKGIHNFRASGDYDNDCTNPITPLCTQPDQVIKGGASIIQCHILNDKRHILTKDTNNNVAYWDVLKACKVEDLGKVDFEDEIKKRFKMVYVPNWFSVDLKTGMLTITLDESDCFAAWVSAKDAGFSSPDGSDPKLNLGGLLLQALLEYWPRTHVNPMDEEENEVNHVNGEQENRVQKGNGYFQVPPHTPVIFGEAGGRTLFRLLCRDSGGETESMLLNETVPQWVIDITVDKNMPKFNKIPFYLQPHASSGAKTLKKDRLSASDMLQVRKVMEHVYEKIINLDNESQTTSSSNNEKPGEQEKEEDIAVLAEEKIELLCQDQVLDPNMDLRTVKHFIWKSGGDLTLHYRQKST
Experimental: Certain compounds of the disclosure were assessed for USP1-UAF1 activity in a Ubiquitin Rhodamine assay as described in Biology Example 1.

SMILES	IC50 [1]	IC50 [2]	IC50 [3]	IC50 [4]
CC(C)c1ccccc1-c1ncc2c(n1)n(Cc1ccc(-c3nc(Cl)cn3C)cc1)c(=N)n2C [Example A-6, 9-(4-(4-chloro-1-methyl-1H-imidazol-2-yl)benzyl)-2-(2-isopropylphenyl)-7-methyl-7,9-dihydro-8H-purin-8-imine]	< 100 nM	< 100 nM	≥ 10000 nM	< 30 nM
Cc1nc(-c2ccccc2C(C)C)nc2c1n(C)c(=N)n2Cc1ccc(-c2nc(C(F)(F)F)cn2C)cc1 [Example A-8, 2-(2-isopropylphenyl)-6,7-dimethyl-9-(4-(1-methyl-4-(trifluoromethyl)-1H-imidazol-2-yl)benzyl)-7,9-dihydro-8H-purin-8-imine]	< 100 nM	< 100 nM	250 to 10000 nM	< 30 nM
Cn1cc(Cl)nc1-c1ccc(Cn2c(=N)n(C)c3cnc(-c4ccccc4Cl)nc32)cc1 [Example A-11, 9-(4-(4-chloro-1-methyl-1H-imidazol-2-yl)benzyl)-2-(2-chlorophenyl)-7-methyl-7,9-dihydro-8H-purin-8-imine]	250 to 10000 nM	250 to 10000 nM	≥ 10000 nM	100 to 10000 nM
C=C(C)c1ccccc1-c1ncc2c(n1)n(Cc1ccc(-c3nc(Cl)cn3C)cc1)c(=N)n2C [Example A-12, 9-(4-(4-chloro-1-methyl-1H-imidazol-2-yl)benzyl)-7-methyl-2-(2-(prop-1-en-2-yl)phenyl)-7,9-dihydro-8H-purin-8-imine]	< 100 nM	< 100 nM	≥ 10000 nM	< 30 nM
CC(C)c1ccccc1-c1nc(C#N)c2c(n1)n(Cc1ccc(-c3nc(C(F)(F)F)cn3C)cc1)c(=N)n2C [Example A-13, 8-imino-2-(2-isopropylphenyl)-7-methyl-9-(4-(1-methyl-4-(trifluoromethyl)-1H-imidazol-2-yl)benzyl)-8,9-dihydro-7H-purine-6-carbonitrile]	250 to 10000 nM	250 to 10000 nM	250 to 10000 nM	100 to 10000 nM
CCn1c(=N)n(Cc2ccc(-c3nc(C(F)(F)F)cn3C)cc2)c2nc(-c3ccccc3C(C)C)ncc21 [Example A-14, 7-ethyl-2-(2-isopropylphenyl)-9-(4-(1-methyl-4-(trifluoromethyl)-1H-imidazol-2-yl)benzyl)-7,9-dihydro-8H-purin-8-imine]	< 100 nM	< 100 nM	250 to 10000 nM	< 30 nM
C=C(C)c1ccccc1-c1nc(C)c2c(n1)n(Cc1ccc(-c3nc(C(F)(F)F)cn3C)cc1)c(=N)n2C [Example A-16, 6,7-dimethyl-9-(4-(1-methyl-4-(trifluoromethyl)-1H-imidazol-2-yl)benzyl)-2-(2-(prop-1-en-2-yl)phenyl)-7,9-dihydro-8H-purin-8-imine]	< 100 nM	< 100 nM	250 to 10000 nM	< 30 nM
CC(C)c1ccccc1-c1nc(N(C)C)c2c(n1)n(Cc1ccc(-c3nc(C(F)(F)F)cn3C)cc1)c(=N)n2C [Example A-17, 8-imino-2-(2-isopropylphenyl)-N,N,7-trimethyl-9-(4-(1-methyl-4-(trifluoromethyl)-1H-imidazol-2-yl)benzyl)-8,9-dihydro-7H-purin-6-amine]	250 to 10000 nM	250 to 10000 nM	250 to 10000 nM	100 to 10000 nM
CNc1nc(-c2ccccc2C(C)C)nc2c1n(C)c(=N)n2Cc1ccc(-c2nc(C(F)(F)F)cn2C)cc1 [Example A-18, 8-imino-2-(2-isopropylphenyl)-N, 7-dimethyl-9-(4-(1-methyl-4-(trifluoromethyl)-1H-imidazol-2-yl)benzyl)-8,9-dihydro-7H-purin-6-amine]	≥ 10000 nM	250 to 10000 nM	250 to 10000 nM	100 to 10000 nM
Cc1cc(Cl)nn1-c1ccc(Cn2c(=N)n(C)c3cnc(-c4ccccc4C(C)C)nc32)cc1 [Example A-21, 9-(4-(3-chloro-5-methyl-1H-pyrazol-1-yl)benzyl)-2-(2-isopropylphenyl)-7-methyl-7,9-dihydro-8H-purin-8-imine]	< 100 nM	< 100 nM	250 to 10000 nM	< 30 nM
CC(C)c1ccccc1-c1nc(C2CC2)c2c(n1)n(Cc1ccc(-c3nc(C(F)(F)F)cn3C)cc1)c(=N)n2C [Example A-23, 6-cyclopropyl-2-(2-isopropylphenyl)-7-methyl-9-(4-(1-methyl-4-(trifluoromethyl)-1H-imidazol-2-yl)benzyl)-7,9-dihydro-8H-purin-8-imine]	250 to 10000 nM	250 to 10000 nM	250 to 10000 nM	< 30 nM
CC(C)c1ccccc1-c1ncc2c(n1)n(Cc1ccc(-n3ccc(C(F)(F)F)n3)cc1)c(=N)n2C [Example A-24, 2-(2-isopropylphenyl)-7-methyl-9-(4-(3-(trifluoromethyl)-1H-pyrazol-1-yl)benzyl)-7,9-dihydro-8H-purin-8-imine]	250 to 10000 nM	250 to 10000 nM	250 to 10000 nM	30 to 100 nM
CC(C)c1ccccc1-c1ncc2c(n1)n(Cc1ccc(-c3nc(C(F)(F)F)cs3)cc1)c(=N)n2C [Example A-25, 2-(2-isopropylphenyl)-7-methyl-9-(4-(4-(trifluoromethyl)thiazol-2-yl)benzyl)-7,9-dihydro-8H-purin-8-imine]	250 to 10000 nM	250 to 10000 nM	250 to 10000 nM	30 to 100 nM
Cc1nc(-c2cc(F)ccc2C(C)C)nc2c1n(C)c(=N)n2Cc1ccc(-c2nc(Cl)cn2C)cc1 [Example A-27, 9-(4-(4-chloro-1-methyl-1H-imidazol-2-yl)benzyl)-2-(5-fluoro-2-isopropylphenyl)-6,7-dimethyl-7,9-dihydro-8H-purin-8-imine]	100 to 250 nM	250 to 10000 nM	250 to 10000 nM	< 30 nM
Cc1nc(-c2cccc(F)c2C(C)C)nc2c1n(C)c(=N)n2Cc1ccc(-c2nc(Cl)cn2C)cc1 [Example A-28, 9-(4-(4-chloro-1-methyl-1H-imidazol-2-yl)benzyl)-2-(3-fluoro-2-isopropylphenyl)-6,7-dimethyl-7,9-dihydro-8H-purin-8-imine]	< 100 nM	< 100 nM	≥ 10000 nM	< 30 nM
CC(C)c1ccccc1-c1ncc2c(n1)n(Cc1ccc(-c3nc(C(F)(F)F)cn3C)cc1F)c(=N)n2C [Example A-29, 9-(2-fluoro-4-(1-methyl-4-(trifluoromethyl)-1H-imidazol-2-yl)benzyl)-2-(2-isopropylphenyl)-7-methyl-7,9-dihydro-8H-purin-8-imine]	< 100 nM	< 100 nM	≥ 10000 nM	< 30 nM
C=C(C)c1c(F)cccc1-c1nc(C)c2c(n1)n(Cc1ccc(-c3nc(Cl)cn3C)cc1)c(=N)n2C [Example A-30, 9-(4-(4-chloro-1-methyl-1H-imidazol-2-yl)benzyl)-2-(3-fluoro-2-(prop-1-en-2-yl)phenyl)-6,7-dimethyl-7,9-dihydro-8H-purin-8-imine]	< 100 nM	< 100 nM	250 to 10000 nM	< 30 nM
C=C(C)c1c(F)cccc1-c1nc(C)c2c(n1)n(Cc1ccc(-c3nc(C(F)(F)F)cn3C)cc1)c(=N)n2C [Example A-31, 2-(3-fluoro-2-(prop-1-en-2-yl)phenyl)-6,7-dimethyl-9-(4-(1-methyl-4-(trifluoromethyl)-1H-imidazol-2-yl)benzyl)-7,9-dihydro-8H-purin-8-imine]	< 100 nM	< 100 nM	250 to 10000 nM	< 30 nM
CC(C)c1ccccc1-c1ncc2c(n1)n(Cc1ccc(-c3nc(C(F)(F)F)cn3C)cc1)c(=N)n2C1CCC1 [Example A-34, 7-cyclobutyl-2-(2-isopropylphenyl)-9-(4-(1-methyl-4-(trifluoromethyl)-1H-imidazol-2-yl)benzyl)-7,9-dihydro-8H-purin-8-imine]	< 100 nM	100 to 250 nM	250 to 10000 nM	< 30 nM
CC(C)c1ccccc1-c1nc(-c2ccccn2)c2c(n1)n(Cc1ccc(-c3nc(C(F)(F)F)cn3C)cc1)c(=N)n2C [Example A-35, 2-(2-isopropylphenyl)-7-methyl-9-(4-(1-methyl-4-(trifluoromethyl)-1H-imidazol-2-yl)benzyl)-6-(pyridin-2-yl)-7,9-dihydro-8H-purin-8-imine]	100 to 250 nM	250 to 10000 nM	250 to 10000 nM	30 to 100 nM
Cc1nc(-c2ccccc2Cl)nc2c1n(C)c(=N)n2Cc1ccc(-c2nc(Cl)cn2C)cc1 [Example A-36, 9-(4-(4-chloro-1-methyl-1H-imidazol-2-yl)benzyl)-2-(2-chlorophenyl)-6,7-dimethyl-7,9-dihydro-8H-purin-8-imine]	250 to 10000 nM	250 to 10000 nM	≥ 10000 nM	100 to 10000 nM
COc1cc(Cn2c(=N)n(C)c3cnc(-c4ccccc4C(C)C)nc32)ccc1-c1nc(C(F)(F)F)cn1C [Example A-37, 2-(2-isopropylphenyl)-9-(3-methoxy-4-(1-methyl-4-(trifluoromethyl)-1H-imidazol-2-yl)benzyl)-7-methyl-7,9-dihydro-8H-purin-8-imine]	100 to 250 nM	250 to 10000 nM	≥ 10000 nM	< 30 nM
Cc1nc(-c2ccccc2C(C)C)nc2c1n(C)c(=N)n2Cc1ccc(-c2nc(Cl)cn2C)cc1 [Example A-38, 9-(4-(4-chloro-1-methyl-1H-imidazol-2-yl)benzyl)-2-(2-isopropylphenyl)-6,7-dimethyl-7,9-dihydro-8H-purin-8-imine]	< 100 nM	< 100 nM	250 to 10000 nM	< 30 nM
